# Experimental data as given in the supplement of paper PMC10307832.
# Assays:
# Assay in all cases: relative viability (nuclei count vs DMSO), 5 days (fraction); higher = more cells survive
# [1] = compound: C1CNCCC1C2=CC(=NN2)C3=CC=NC=C3
# Procedure, shortened: (§1)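 On vehicle-anchored 1536-well plates, lung cancer cell lines held overnight at 37 °C were pinned with five library-drug doses (not always all listed) spaced by √10. With no medium change over 5 days, they were then fixed, permeabilised and Hoechst-stained in one step and imaged at 4×. MetaXpress counted nuclei, and viability is the median across plates of treated-well over vehicle-well nuclei. Acceptance needed control CV below 25% and at least one doubling.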
# [2] = compound: C[C@@H](N)c1ccc(C(=O)Nc2ccnc3[nH]ccc23)cc1
# Procedure, shortened: as §1
# [3] = compound: O[C@H]1CC[C@H](Nc2ncc3nc(Nc4c(F)cc(F)cc4F)n([C@H]4CCOC4)c3n2)CC1 [Tanzisertib]
# Procedure, shortened: as §1
# [4] = compound: C[C@@H](N)c1ccc(C(=O)Nc2ccnc3[nH]ccc23)cc1 + C[C@@H](Oc1cc(-c2cnn(C3CCNCC3)c2)cnc1N)c1c(Cl)ccc(F)c1Cl [Crizotinib] (partner 1 µM)
# Procedure, shortened: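 For relative viability, nuclei counts in treated wells were divided by those in vehicle wells. Lung cancer cell lines had been pin-tool dosed in 1536-well plates the day after seeding and cultured for 5 days, then fixed and stained in one step (final 0.05% Triton X-100, 1% formaldehyde, 1 ug/ml Hoechst) and imaged at 4×. Doses were one drug alone or a fixed anchor-drug dose plus five library-drug doses (not always all listed) in √10 steps, and values are duplicate-plate medians.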
cell line,measurement,setting,value
NCI-H2023,relative viability,[1]; 0.08 µM,0.821
same,relative viability,[1]; 0.8 µM,1.1
same,relative viability,[1]; 2.53 µM,1.08
same,relative viability,[1]; 8 µM,1
same,relative viability,[2]; 0.04 µM,1.04
same,relative viability,[2]; 0.1265 µM,1.06
same,relative viability,[2]; 0.4 µM,1.12
same,relative viability,[2]; 1.265 µM,0.942
same,relative viability,[2]; 4 µM,1.02
same,relative viability,[3]; 0.08 µM,1.1
same,relative viability,[3]; 0.253 µM,0.958
same,relative viability,[3]; 0.8 µM,1
same,relative viability,[3]; 2.53 µM,0.907
same,relative viability,[3]; 8 µM,0.899
same,relative viability,[4]; first compound 0.04 µM,0.738
same,relative viability,[4]; first compound 0.1265 µM,0.596
same,relative viability,[4]; first compound 0.4 µM,0.733
same,relative viability,[4]; first compound 1.265 µM,0.741
same,relative viability,[4]; first compound 4 µM,0.544
NCI-H2085,relative viability,[1]; 0.08 µM,1.09
same,relative viability,[1]; 2.53 µM,1.01
same,relative viability,[1]; 8 µM,0.983
same,relative viability,[2]; 0.04 µM,0.944
same,relative viability,[2]; 0.1265 µM,0.96
same,relative viability,[2]; 0.4 µM,0.958
same,relative viability,[2]; 1.265 µM,0.935
same,relative viability,[2]; 4 µM,0.861
same,relative viability,[3]; 0.08 µM,0.987
same,relative viability,[3]; 0.253 µM,0.991
same,relative viability,[3]; 0.8 µM,1.02
same,relative viability,[3]; 2.53 µM,1.03
same,relative viability,[3]; 8 µM,0.976
same,relative viability,[4]; first compound 0.04 µM,0.914
same,relative viability,[4]; first compound 0.1265 µM,0.917
same,relative viability,[4]; first compound 0.4 µM,0.786
same,relative viability,[4]; first compound 1.265 µM,0.749
same,relative viability,[4]; first compound 4 µM,0.718
NCI-H2087,relative viability,[1]; 0.08 µM,1
same,relative viability,[1]; 0.8 µM,1.12
same,relative viability,[1]; 2.53 µM,0.996
same,relative viability,[1]; 8 µM,0.96
same,relative viability,[2]; 0.04 µM,0.988
same,relative viability,[2]; 0.1265 µM,1.01
same,relative viability,[2]; 0.4 µM,0.916
same,relative viability,[2]; 1.265 µM,0.92
same,relative viability,[2]; 4 µM,0.711
same,relative viability,[3]; 0.08 µM,1.19
same,relative viability,[3]; 0.253 µM,0.969
same,relative viability,[3]; 0.8 µM,1.25
same,relative viability,[3]; 2.53 µM,1.09
same,relative viability,[3]; 8 µM,0.916
same,relative viability,[4]; first compound 0.04 µM,0.824
same,relative viability,[4]; first compound 0.1265 µM,0.538
same,relative viability,[4]; first compound 0.4 µM,0.581
same,relative viability,[4]; first compound 1.265 µM,0.788
same,relative viability,[4]; first compound 4 µM,0.386
NCI-H2126,relative viability,[1]; 0.08 µM,0.944
same,relative viability,[1]; 0.8 µM,0.969
same,relative viability,[1]; 2.53 µM,1.06
same,relative viability,[1]; 8 µM,1.02
same,relative viability,[2]; 0.04 µM,1.06
same,relative viability,[2]; 0.1265 µM,0.999
same,relative viability,[2]; 0.4 µM,0.994
same,relative viability,[2]; 1.265 µM,0.889
same,relative viability,[2]; 4 µM,1.1
same,relative viability,[3]; 0.08 µM,1.01
same,relative viability,[3]; 0.253 µM,1.08
same,relative viability,[3]; 0.8 µM,1.03
same,relative viability,[3]; 2.53 µM,0.983
same,relative viability,[3]; 8 µM,0.893
same,relative viability,[4]; first compound 0.04 µM,1.03
same,relative viability,[4]; first compound 0.1265 µM,1.02
same,relative viability,[4]; first compound 0.4 µM,1.03
same,relative viability,[4]; first compound 1.265 µM,1.02
same,relative viability,[4]; first compound 4 µM,1.04
NCI-H2170,relative viability,[1]; 0.08 µM,0.834
same,relative viability,[1]; 0.8 µM,0.978
same,relative viability,[1]; 2.53 µM,0.939
same,relative viability,[1]; 8 µM,0.984
same,relative viability,[2]; 0.04 µM,1.1
same,relative viability,[2]; 0.1265 µM,0.992
same,relative viability,[2]; 0.4 µM,1
same,relative viability,[2]; 1.265 µM,0.926
same,relative viability,[2]; 4 µM,0.936
same,relative viability,[3]; 0.08 µM,1.11
same,relative viability,[3]; 0.253 µM,0.96
same,relative viability,[3]; 0.8 µM,0.992
same,relative viability,[3]; 2.53 µM,0.977
same,relative viability,[3]; 8 µM,0.887
same,relative viability,[4]; first compound 0.04 µM,1.21
same,relative viability,[4]; first compound 0.1265 µM,1.08
same,relative viability,[4]; first compound 0.4 µM,1.18
same,relative viability,[4]; first compound 1.265 µM,1.21
same,relative viability,[4]; first compound 4 µM,1.08
NCI-H2228,relative viability,[1]; 0.08 µM,0.921
same,relative viability,[1]; 0.8 µM,1.17
same,relative viability,[1]; 2.53 µM,0.983
same,relative viability,[1]; 8 µM,1.07
same,relative viability,[2]; 0.04 µM,1.17
same,relative viability,[2]; 0.1265 µM,1.05
same,relative viability,[2]; 0.4 µM,1.13
same,relative viability,[2]; 1.265 µM,1.03
same,relative viability,[2]; 4 µM,0.814
same,relative viability,[3]; 0.08 µM,1.19
same,relative viability,[3]; 0.253 µM,0.853
same,relative viability,[3]; 0.8 µM,1.02
same,relative viability,[3]; 2.53 µM,1.06
same,relative viability,[3]; 8 µM,0.864
same,relative viability,[4]; first compound 0.04 µM,0.373
same,relative viability,[4]; first compound 0.1265 µM,0.463
same,relative viability,[4]; first compound 0.4 µM,0.653
same,relative viability,[4]; first compound 1.265 µM,0.556
same,relative viability,[4]; first compound 4 µM,0.497
NCI-H2347,relative viability,[1]; 0.08 µM,1.01
same,relative viability,[1]; 0.8 µM,0.869
same,relative viability,[1]; 2.53 µM,1.08
same,relative viability,[1]; 8 µM,1.12
same,relative viability,[2]; 0.04 µM,0.971
same,relative viability,[2]; 0.1265 µM,0.995
same,relative viability,[2]; 0.4 µM,1.14
same,relative viability,[2]; 1.265 µM,0.816
same,relative viability,[2]; 4 µM,0.956
same,relative viability,[3]; 0.08 µM,1.11
same,relative viability,[3]; 0.253 µM,0.956
same,relative viability,[3]; 0.8 µM,1.06
same,relative viability,[3]; 2.53 µM,1.08
same,relative viability,[3]; 8 µM,0.965
same,relative viability,[4]; first compound 0.04 µM,0.668
same,relative viability,[4]; first compound 0.1265 µM,0.775
same,relative viability,[4]; first compound 0.4 µM,0.776
same,relative viability,[4]; first compound 1.265 µM,0.714
same,relative viability,[4]; first compound 4 µM,0.605
NCI-H2405,relative viability,[1]; 0.08 µM,1.04
same,relative viability,[1]; 0.8 µM,0.901
same,relative viability,[1]; 2.53 µM,1.02
same,relative viability,[1]; 8 µM,0.961
same,relative viability,[2]; 0.04 µM,0.653
same,relative viability,[2]; 0.1265 µM,1.16
same,relative viability,[2]; 0.4 µM,0.998
same,relative viability,[2]; 1.265 µM,0.569
same,relative viability,[2]; 4 µM,0.376
same,relative viability,[3]; 0.08 µM,1.12
same,relative viability,[3]; 0.253 µM,1.02
same,relative viability,[3]; 0.8 µM,1.1
same,relative viability,[3]; 2.53 µM,1.04
same,relative viability,[3]; 8 µM,0.695
same,relative viability,[4]; first compound 0.04 µM,0.689
same,relative viability,[4]; first compound 0.1265 µM,0.904
same,relative viability,[4]; first compound 0.4 µM,0.868
same,relative viability,[4]; first compound 1.265 µM,0.68
same,relative viability,[4]; first compound 4 µM,0.387
